In EP1100483B1, “GLUCOCORTICOID-SELECTIVE ANTI-INFLAMMATORY AGENTS” (Abbott Laboratories, priority 1998, dated 2000) one finds Ki data, which are given here for 13 compounds.

The assay deals with T1, human androgen receptor (AR) (Homo sapiens, UniProt P10275).
T1 construct: The full length human androgen receptor (AR) was derived from cDNA expressed in a baculovirus expression system; purchased Ligand Pharmaceuticals (San Diego, CA); host or cells: SF21 insect cells (baculovirus)
T1 sequence (P10275 1-920): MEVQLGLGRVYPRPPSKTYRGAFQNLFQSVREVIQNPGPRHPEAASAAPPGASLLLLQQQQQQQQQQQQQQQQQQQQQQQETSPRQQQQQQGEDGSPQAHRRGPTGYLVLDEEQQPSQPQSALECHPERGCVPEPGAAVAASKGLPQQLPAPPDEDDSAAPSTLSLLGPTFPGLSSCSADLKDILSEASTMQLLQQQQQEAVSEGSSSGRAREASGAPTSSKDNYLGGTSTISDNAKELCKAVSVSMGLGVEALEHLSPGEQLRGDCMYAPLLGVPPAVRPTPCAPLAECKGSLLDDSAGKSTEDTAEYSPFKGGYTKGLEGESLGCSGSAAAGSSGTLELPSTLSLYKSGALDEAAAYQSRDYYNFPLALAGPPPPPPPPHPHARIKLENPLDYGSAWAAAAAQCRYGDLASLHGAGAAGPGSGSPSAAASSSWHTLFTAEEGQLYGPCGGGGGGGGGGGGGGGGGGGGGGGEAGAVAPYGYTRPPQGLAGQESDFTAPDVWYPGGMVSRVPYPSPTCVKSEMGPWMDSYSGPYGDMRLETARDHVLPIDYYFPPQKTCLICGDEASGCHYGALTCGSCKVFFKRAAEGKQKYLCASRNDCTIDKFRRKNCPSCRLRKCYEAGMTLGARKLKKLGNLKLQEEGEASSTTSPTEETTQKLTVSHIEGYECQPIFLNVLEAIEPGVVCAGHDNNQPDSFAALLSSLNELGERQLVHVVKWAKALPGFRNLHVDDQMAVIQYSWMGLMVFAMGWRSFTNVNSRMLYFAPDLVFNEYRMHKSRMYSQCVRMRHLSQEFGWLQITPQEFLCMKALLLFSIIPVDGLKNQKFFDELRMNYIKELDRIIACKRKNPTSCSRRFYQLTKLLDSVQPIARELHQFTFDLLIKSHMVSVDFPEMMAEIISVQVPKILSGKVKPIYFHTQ
Briefly: human androgen receptor (AR) cytosol binding assay, [3H]-dihydrotestosterone competition. Conditions: 1-2 nM [3H]-DHT, 4 °C for 18 hours; Cheng-Prusoff. The source says:
For human androgen receptor (AR) cytosol binding assays, [^3H]-dihydrotestosterone (DHT) (120-140 Ci/mmol) was purchased from Amersham Life Science (Arlington Heights, IL), DHT was purchased from Sigma Chemical Co. (St. Louis, MO), CHAPS and DTT were purchased from Boehringer Mannheim GmbH (W. Germany), and all other reagents were purchased from Sigma. The full length human androgen receptor (AR) was derived from cDNA expressed in a baculovirus expression system from Ligand Pharmaceuticals (San Diego, CA). The methods concerning growth, purification, and assays of recombinant viruses followed the protocol outlined by Summers, M.D., Smith, G.E., A Manual of Methods for Baculovirus Vectors and Insect Cell Culture Procedures, Tex. Agric. Exp. Stn. [Bull], 1987, No. 155, hereby incorporated by reference. The recombinant plasmids were cotransfected into SF21 cells with wild type AcNPV DNA, and the recombinant viruses were plaque purified.
A receptor extract was prepared from the baculovirus system , and aliquots were stored at -80 °C until used. Typical protein concentrations for these extracts were between 10 and 20 mg/ml. Stock solutions of DHT or other competing compounds were prepared as 5 mM stock solutions in either 100% ethanol or DMSO and serial dilutions were carried out in 1:1 DMSO-ethanol. The assay buffer consisted of the following: 25 mM sodium phosphate, 10 mM potassium fluoride, 10 mM sodium molybdate, 10% glycerol, 1.5 mM EDTA, 2 mM DTT, 2 mM CHAPS and 1 mM PMSF, pH=7.4 at room temperature.
Receptor assays were performed with a final volume of 250 µL containing from 50-75 µg of extract protein, plus 1-2 nM [^3H]-DHT and varying concentrations of competing ligand (0-10-5 M). Assays were set up using a 96-well minitube system and incubations were carried out at 4 °C for 18 hours. Equilibrium under these conditions of buffer and temperature was achieved by 6-8 hours. Nonspecific binding was defined as that binding remaining in the presence of 1000 nM unlabeled DHT. At the end of the incubation period, 200 µL of 6.25% hydroxyapatite was added in wash buffer (binding buffer in the absence of DTT and PMSF). Specific ligand binding to receptor was determined by a hydroxyapatite-binding assay according to the protocol outlined by Wecksler, W.R., Norman, A.W., An Hydroxylapatite Batch Assay for the Quantitation of 1α, 25-Dihydroxyvitamin D3-Receptor Complexes, Anal. Biochem. 1979, 92, 314-323, hereby incorporated by reference. Hydroxyapatite absorbs the receptor-ligand complex, allowing for the separation of bound from free radiolabeled ligand. The mixture was vortexed, incubated for 10 minutes at 4 °C, centrifuged, and the supernatant was removed. The hydroxyapatite pellet was washed twice more with the wash buffer. The amount of receptor-ligand complex was determined by liquid scintillation counting of the hydroxyapatite pellet after the addition of […] EcoScint A scintillation cocktail from National Diagnostics (Atlanta, GA.).
After correcting for nonspecific binding, IC50 values were determined. […] The IC50 values were determined graphically from a log-logit plot of the data. […] Standards are included in each assay and resulting Ki values are determined by use of a modified Cheng-Prusoff equation and used to calculate Ki values for "unknown analogs" outlined by DeBlasi, A., O'Reilly, K., Motulsky, H.J., Calculating Receptor Number from Binding Experiments Using Same Compound As Radioligand and Competitor, TIPS 1989, 10, 227-229, hereby incorporated by reference.

The compound `CN(C)c1ccc(C(c2ccc(N(C)C)cc2)c2cc([N+](=O)[O-])ccc2Cl)cc1` [Example 1, 4',4" bis(dimethylamino)-2-chloro-5-nitrotriphenylmethane] had a Ki of 3730 nM.
To `CNc1ccc(C(c2ccc(NC)cc2)c2cc([N+](=O)[O-])ccc2Cl)cc1` [Example 23, 4',4" bis(methylamino)-2-chloro-5-nitrotriphenylmethane] belongs 4260 nM; to `CN(C)c1ccc(C(c2ccc(N(C)C)cc2)c2cc(Cl)ccc2Cl)cc1` [Example 24, 4',4" bis(dimethylamino)-2,5-dichlorotriphenylmethane], 3730 nM; to `CNc1ccc(C(c2ccc(NC)cc2)c2cc(Cl)ccc2Cl)cc1` [Example 27, 4',4" bis(methylamino)-2,5-dichlorotriphenylmethane], 3240 nM.
To `CC(=O)OCCN(C)c1ccc(C(c2ccc(N(C)CCOC(C)=O)cc2)c2cc([N+](=O)[O-])ccc2Cl)cc1` [Example 31, 4',4" bis(N-(2-acetoxyethyl) N-methylamino)-2-chloro-5-nitrotriphenylmethane] belongs 3520 nM; to `CN(CCO)c1ccc(C(c2ccc(N(C)CCO)cc2)c2cc([N+](=O)[O-])ccc2Cl)cc1` [Example 32, 4',4" bis(N-(2-hydroxyethyl) N-methylamino)-2-chloro-5-nitrotriphenylmethane], 3520 nM.
In turn, `O=[N+]([O-])c1ccc(Cl)c(C(c2ccc(NCc3ccccc3)cc2)c2ccc(NCc3ccccc3)cc2)c1` [Example 36, 4',4" bis(N-benzylamino)-2-chloro-5-nitrotriphenylmethane] displayed a Ki of 3730 nM.
In turn, `CNc1ccc(C(c2ccc(N(C)C)cc2)c2cc([N+](=O)[O-])ccc2Cl)cc1` (stereo not shown) [Example 39, 4'-dimethylamino-4"-methylamino-2-chloro-5-nitrotriphenylmethane] gave an inhibition constant Ki of 3730 nM.
As for `CN(C)c1ccc(C(c2ccc(N(C)CCO)cc2)c2cc([N+](=O)[O-])ccc2Cl)cc1` (stereo not shown) [Example 42, 4'-dimethylamino-4"-(N-methyl-N-(2-hydroxyethyl)amino)-2-chloro-5-nitrotriphenylmethane], the affinity, expressed as Ki, was 2800 nM. This Ki and that of the compound before are within 1.5-fold of each other.
To `CNc1ccc(C(c2ccc(N(C)CCOC(C)=O)cc2)c2cc([N+](=O)[O-])ccc2Cl)cc1` (stereo not shown) [Example 49, 4'-methylamino-4"-(N-(2-acetoxyethyl)-N-methylamino)-2-chloro-5-nitrotriphenylmethane] belongs 1040 nM.
`CC(=O)OCCN(C)c1ccc(C(c2ccc(N(C)C)cc2)c2cc([N+](=O)[O-])ccc2Cl)cc1` (stereo not shown) [Example 51, 4'-dimethylamino-4"-(N-methyl-N-(2-acetoxyethyl)amino)-2-chloro-5-nitrotriphenylmethane]: the inhibition constant Ki was above 10000 nM.
In turn, `CN(C)c1ccc(C(Oc2ccccc2)c2cc([N+](=O)[O-])ccc2Cl)cc1` (stereo not shown) [Example 52, phenyl-[(4'-dimethylaminophenyl)-(2-chloro-5-nitrophenyl)methyl] ether] showed an inhibition constant Ki above 10000 nM.
In turn, `CN(C)c1ccc(C(Sc2ccccc2)c2cc([N+](=O)[O-])ccc2Cl)cc1` (stereo not shown) [Example 54, phenyl-[(4'-dimethylaminophenyl)-(2-chloro-5-nitrophenyl)methyl]thioether] had a Ki of 3730 nM.

As a reminder, the Ki is the dissociation constant of the complex between target and ligand, obtained from inhibition or displacement. Read a high Ki as lower affinity.
